Data: patent US8658604B2, “Template-fixed beta-hairpin peptidomimetics with protease inhibitory activity” (Polyphor Ltd, priority 2005, dated 2014)
Like-named read-outs stand apart in the source and are kept apart here. Where a SMILES comes first, the peptide text is derived from it. Bridges are numbered along the chain shown (N, C = ends). [ ]: non-standard residue; d: D form. Nle = CCCC[C@H](N)C(=O)O; Abu = CC[C@H](N)C(=O)O

Tests used:
[1] = tested on: Tryptase, from human lung; test: Enzymatic assay, tryptase; details: at 100 μM
HELA cells (Acc57) = test: Cytotoxicity assay (MTT reduction), HELA cells; assay type: cell-based
Description: The cytotoxicity of the peptides to HELA cells (Acc57) and COS-7 cells (CRL-1651) was determined using the MTT reduction assay [see ref. 2 and 3, below]. Briefly the method was as follows: HELA cells and COS-7 cells were seeded at 7.0×10^3 and, respectively, 4.5×10^3 cells per well and grown in 96-well microtiter plates for 24 hours at 37° C. at 5% CO2. At this point, time zero (Tz) was determined by MTT reduction (see below). The supernatant of the remaining wells was discarded, and fresh medium and the peptides in serial dilutions of 12.5, 25 and 50 μM were pipetted into the wells. Each peptide concentration was assayed in triplicate. Incubation of the cells was continued for 48 hours at 37° C. at 5% CO2. Wells were then washed once with phosphate buffered saline (PBS) and subsequently 100 μl MTT reagent (0.5 mg/ml in medium RPMI1640 and, respectively, DMEM) were added to the wells. This was incubated at 37° C. for 2 hours and subsequently the medium was aspirated and 100 μl isopropanol were added to each well. The absorbance at 595 nm of the solubilized product was measured (OD595peptide). For each concentration averages were calculated from triplicates. The percentage of growth was calculated as follows: (OD595peptide-OD595Tz-OD595Empty well)/(OD595Tz-OD595Empty well)×100% and was plotted for each peptide concentration.
The LC 50 values (Lethal Concentration, defined as the concentration that kills 50% of the cells) were determined for each peptide by using the trend line function of EXCEL (Microsoft Office 2000) for the concentrations (50, 25, 12.5 and 0 μM), the corresponding growth percentages and the value −50, (=TREND(C50:C0,%50:%0,−50)).
The GI 50 (Growth Inhibition) concentrations were calculated for each peptide by using a trend line function for the concentrations (50, 25, 12.5 and 0 μg/ml), the corresponding percentages and the value 50, (=TREND (C50:C0,%50:%0,50).

[2] = biological target: Chymotrypsin, from human pancreas (Homo sapiens, UniProt P17538); test: Enzymatic assay, chymotrypsin
[3] = biological target: T1, Elastase from human neutrophils (Homo sapiens, UniProt P08246); test: Enzymatic assay, elastase
T1 sequence (P08246 30-267): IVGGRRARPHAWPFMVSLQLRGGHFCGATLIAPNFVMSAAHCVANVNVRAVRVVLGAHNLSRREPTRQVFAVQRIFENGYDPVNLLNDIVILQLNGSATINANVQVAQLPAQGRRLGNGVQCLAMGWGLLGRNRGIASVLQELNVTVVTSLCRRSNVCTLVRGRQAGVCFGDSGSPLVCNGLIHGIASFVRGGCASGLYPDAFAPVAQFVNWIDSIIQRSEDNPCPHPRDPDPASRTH

Chymase, from human skin = biological target: T2, Chymase, from human skin (Homo sapiens, UniProt P23946); test: Enzymatic assay, chymase
T2 sequence (P23946 22-247): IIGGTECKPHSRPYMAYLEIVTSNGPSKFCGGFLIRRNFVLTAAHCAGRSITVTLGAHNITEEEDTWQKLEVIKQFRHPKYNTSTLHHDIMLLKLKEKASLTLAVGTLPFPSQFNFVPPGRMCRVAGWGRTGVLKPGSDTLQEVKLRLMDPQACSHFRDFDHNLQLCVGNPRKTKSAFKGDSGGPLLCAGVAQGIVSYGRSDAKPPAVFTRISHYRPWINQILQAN

[4] = biological target: Trypsin, from human pancreas (Homo sapiens, UniProt P07477); test: Enzymatic assay, trypsin; details: at 100 μM
[5] = biological target: Coagulation Factor Xa, from uman plasma (Homo sapiens, UniProt P00742); test: Enzymatic assay, coagulation factor Xa
[6] = biological target: Thrombin, from Human Plasma (Homo sapiens, UniProt P00734); test: Enzymatic assay, thrombin
[7] = biological target: T3, CathepsinG, from human neutrophils (Homo sapiens, UniProt P08311); test: Enzymatic assay, cathepsin G
T3 sequence (P08311 21-244): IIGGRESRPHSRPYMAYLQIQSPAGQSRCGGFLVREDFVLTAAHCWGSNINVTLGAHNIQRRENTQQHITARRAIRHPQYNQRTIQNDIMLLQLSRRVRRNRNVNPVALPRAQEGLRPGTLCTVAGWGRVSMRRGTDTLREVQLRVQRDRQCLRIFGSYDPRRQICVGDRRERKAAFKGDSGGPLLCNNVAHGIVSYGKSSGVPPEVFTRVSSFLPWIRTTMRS

Chain of Chymotrypsin, from human pancreas (P17538 19-263): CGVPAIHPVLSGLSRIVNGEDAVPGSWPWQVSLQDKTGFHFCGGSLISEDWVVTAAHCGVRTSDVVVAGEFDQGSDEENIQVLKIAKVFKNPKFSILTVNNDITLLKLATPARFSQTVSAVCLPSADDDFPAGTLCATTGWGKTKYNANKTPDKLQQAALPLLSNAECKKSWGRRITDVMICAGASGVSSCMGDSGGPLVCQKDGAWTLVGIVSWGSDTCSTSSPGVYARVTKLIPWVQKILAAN
Chain of Coagulation Factor Xa, from uman plasma (P00742 235-488 limits assumed): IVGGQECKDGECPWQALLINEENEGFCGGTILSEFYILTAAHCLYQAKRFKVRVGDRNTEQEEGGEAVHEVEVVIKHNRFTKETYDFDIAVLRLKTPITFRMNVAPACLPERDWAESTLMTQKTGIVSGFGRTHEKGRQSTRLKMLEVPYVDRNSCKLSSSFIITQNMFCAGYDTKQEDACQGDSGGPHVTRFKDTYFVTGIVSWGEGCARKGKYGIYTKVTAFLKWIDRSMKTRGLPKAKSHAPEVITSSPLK
Chain of Coagulation Factor Xa, from uman plasma (P00742 41-179 limits assumed): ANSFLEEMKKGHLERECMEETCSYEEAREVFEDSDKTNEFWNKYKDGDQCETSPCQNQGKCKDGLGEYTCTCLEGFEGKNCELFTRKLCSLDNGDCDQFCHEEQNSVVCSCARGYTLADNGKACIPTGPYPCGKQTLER

For CC[C@H](C)[C@@H]1NC(=O)[C@@H]2CCCN2C(=O)[C@@H]2CCCN2C(=O)[C@H](CC(=O)O)NC(=O)[C@H]([C@H](C)O)NC(=O)[C@H](CCCCN)NC(=O)[C@H]([C@@H](C)O)NC(=O)[C@@H]2CSSC[C@H](NC1=O)C(=O)N[C@@H](CO)C(=O)N1CCC[C@@H]1C(=O)N1CCC[C@H]1C(=O)N[C@@H](Cc1ccccc1)C(=O)N2 [Ex. 24] (HELM PEPTIDE1{F.C.T.K.[C[C@H](O)[C@H](N[*:1])C(=O)[*:2]].D.P.P.I.C.S.[dP].P}$PEPTIDE1,PEPTIDE1,2:R3-10:R3|PEPTIDE1,PEPTIDE1,1:R1-13:R2$$$V2.0), the “Tryptase at 100 μM %” value [1] was 0% and the Cytotoxicity LC50/GI50 Hela cells (HELA cells (Acc57); Hela cells) was 99 µM.

For CCCCCC[C@@H]1NC(=O)[C@H](CO)NC(=O)[C@H](C)NC(=O)[C@H]([C@@H](C)O)NC(=O)[C@@H]2CSSC[C@H](NC(=O)[C@H](CCC(N)=O)NC(=O)[C@@H]3CCCN3C(=O)[C@@H]3CCCN3C1=O)C(=O)N[C@@H](Cc1ccc(O)cc1)C(=O)N1CCC[C@@H]1C(=O)N1CCC[C@H]1C(=O)N[C@@H](CCCC)C(=O)N2 [Ex. 80] (HELM PEPTIDE1{[Nle].C.T.A.S.[CCCCCC[C@H](N[*:1])C(=O)[*:2]].P.P.Q.C.Y.[dP].P}$PEPTIDE1,PEPTIDE1,2:R3-10:R3|PEPTIDE1,PEPTIDE1,1:R1-13:R2$$$V2.0), the IC50 [2] was > 20 µM, the IC50 ([3]; Elastase IC50) was 35 nM and the Cytotoxicity LC50/GI50 Hela cells (HELA cells (Acc57); Hela cells) was 12 µM.

With CCCC[C@@H]1NC(=O)[C@@H]2CCCN2C(=O)[C@H]2CCCN2C(=O)[C@H](Cc2ccc(O)cc2)NC(=O)[C@@H]2CSSC[C@H](NC1=O)C(=O)N[C@@H]([C@@H](C)O)C(=O)N[C@@H](C)C(=O)N[C@@H](CO)C(=O)N[C@@H](CCC(C)C)C(=O)N1CCC[C@H]1C(=O)N1CCC[C@H]1C(=O)N[C@@H](CCC(N)=O)C(=O)N2 [Ex. 83] (HELM PEPTIDE1{[Nle].C.T.A.S.[CC(C)CC[C@H](N[*:1])C(=O)[*:2]].P.P.Q.C.Y.[dP].P}$PEPTIDE1,PEPTIDE1,2:R3-10:R3|PEPTIDE1,PEPTIDE1,1:R1-13:R2$$$V2.0) the IC50 [2] was 100 µM, the IC50 ([3]; Elastase IC50) was 43 nM and the Cytotoxicity LC50/GI50 Hela cells (HELA cells (Acc57); Hela cells) was 12 µM.

For CCCC[C@@H]1NC(=O)[C@@H]2CCCN2C(=O)[C@H]2CCCN2C(=O)[C@H](CCC(N)=O)NC(=O)[C@@H]2CSSC[C@H](NC1=O)C(=O)N[C@@H]([C@@H](C)O)C(=O)N[C@@H](C)C(=O)N[C@@H](CO)C(=O)N[C@@H]([C@@H](C)CC)C(=O)N1CCC[C@H]1C(=O)N1CCC[C@H]1C(=O)N[C@@H](CCC(N)=O)C(=O)N2 [Ex. 91] (HELM PEPTIDE1{[Nle].C.T.A.S.I.P.P.Q.C.Q.[dP].P}$PEPTIDE1,PEPTIDE1,2:R3-10:R3|PEPTIDE1,PEPTIDE1,1:R1-13:R2$$$V2.0), the IC50 [2] was 48.1 µM, the “Chymase at 100 μM %” value (Chymase, from human skin) was 4.7% and the IC50 ([3]; Elastase IC50) was 28 nM. For the same compound, the “Trypsin at 100 μM %” value [4] was 0%, the “FXa at 100 μM %” value [5] was 19.4% and the “Thrombin at 100 μM %” value [6] was 13.5%. For the same compound, the Cytotoxicity LC50/GI50 Hela cells (HELA cells (Acc57); Hela cells) was 79 µM and the “Cathepsin G at 100 μM %” value ([7]; at 100 μM (stated in cell instead of IC50)) was 45 at 100%.

CCCC[C@@H]1NC(=O)[C@@H]2CCCN2C(=O)[C@H]2CCCN2C(=O)[C@H](CO)NC(=O)[C@@H]2CSSC[C@H](NC1=O)C(=O)N[C@@H]([C@@H](C)O)C(=O)N[C@@H](C)C(=O)N[C@@H](CO)C(=O)N[C@@H]([C@@H](C)CC)C(=O)N1CCC[C@H]1C(=O)N1CCC[C@H]1C(=O)N[C@@H](CCC(N)=O)C(=O)N2 [Ex. 93] (HELM PEPTIDE1{[Nle].C.T.A.S.I.P.P.Q.C.S.[dP].P}$PEPTIDE1,PEPTIDE1,2:R3-10:R3|PEPTIDE1,PEPTIDE1,1:R1-13:R2$$$V2.0) was tested, and the IC50 ([3]; Elastase IC50) was 41 nM, the “Tryptase at 100 μM %” value [1] was 5.6% and the Cytotoxicity LC50/GI50 Hela cells (HELA cells (Acc57); Hela cells) was 100 µM.

In the case of CCCC[C@@H]1NC(=O)[C@@H]2CCCN2C(=O)[C@@H](CC(=O)O)NC(=O)[C@H](Cc2ccc(O)cc2)NC(=O)[C@@H]2CSSC[C@H](NC1=O)C(=O)N[C@@H]([C@@H](C)O)C(=O)N[C@@H](C)C(=O)N[C@@H](CO)C(=O)N[C@@H]([C@@H](C)CC)C(=O)N1CCC[C@H]1C(=O)N1CCC[C@H]1C(=O)N[C@@H](CCC(N)=O)C(=O)N2 [Ex. 115] (HELM PEPTIDE1{[Nle].C.T.A.S.I.P.P.Q.C.Y.[dD].P}$PEPTIDE1,PEPTIDE1,2:R3-10:R3|PEPTIDE1,PEPTIDE1,1:R1-13:R2$$$V2.0), the IC50 [2] is reported as 27.8 µM, the IC50 ([3]; Elastase IC50) is reported as 38 nM and the Cytotoxicity LC50/GI50 Hela cells (HELA cells (Acc57); Hela cells) is reported as 51 µM.

CCCC[C@@H]1NC(=O)[C@@H]2CCCN2C(=O)[C@H]2CCCCN2C(=O)[C@H](Cc2ccc(O)cc2)NC(=O)[C@@H]2CSSC[C@H](NC1=O)C(=O)N[C@@H]([C@@H](C)O)C(=O)N[C@@H](C)C(=O)N[C@@H](CO)C(=O)N[C@@H]([C@@H](C)CC)C(=O)N1CCC[C@H]1C(=O)N1CCC[C@H]1C(=O)N[C@@H](CCC(N)=O)C(=O)N2 [Ex. 120] (HELM PEPTIDE1{A.S.I.P.P.Q.C.Y.[O=C([C@H]1CCCCN1[*:1])[*:2]].P.[Nle].C.T}$PEPTIDE1,PEPTIDE1,7:R3-12:R3|PEPTIDE1,PEPTIDE1,1:R1-13:R2$$$V2.0) was tested, and the IC50 ([3]; Elastase IC50) was 29 nM and the Cytotoxicity LC50/GI50 Hela cells (HELA cells (Acc57); Hela cells) was 38 µM.

Compound CCCC[C@@H]1NC(=O)[C@H](CO)NC(=O)[C@H]2CCCN2C(=O)[C@H](Cc2ccc(O)cc2)NC(=O)[C@@H]2CSSC[C@H](NC1=O)C(=O)N[C@@H]([C@@H](C)O)C(=O)N[C@@H](C)C(=O)N[C@@H](CO)C(=O)N[C@@H]([C@@H](C)CC)C(=O)N1CCC[C@H]1C(=O)N1CCC[C@H]1C(=O)N[C@@H](CCC(N)=O)C(=O)N2 [Ex. 124] (HELM PEPTIDE1{A.S.I.P.P.Q.C.Y.[dP].S.[Nle].C.T}$PEPTIDE1,PEPTIDE1,7:R3-12:R3|PEPTIDE1,PEPTIDE1,1:R1-13:R2$$$V2.0) has an IC50 ([3]; Elastase IC50) of 40 nM and a Cytotoxicity LC50/GI50 Hela cells (HELA cells (Acc57); Hela cells) of 40 µM.

With CCCC[C@@H]1NC(=O)[C@H](C(C)C)NC(=O)[C@H]2CCCN2C(=O)[C@H](Cc2ccc(O)cc2)NC(=O)[C@@H]2CSSC[C@H](NC1=O)C(=O)N[C@@H]([C@@H](C)O)C(=O)N[C@@H](C)C(=O)N[C@@H](CO)C(=O)N[C@@H]([C@@H](C)CC)C(=O)N1CCC[C@H]1C(=O)N1CCC[C@H]1C(=O)N[C@@H](CCC(N)=O)C(=O)N2 [Ex. 125] (HELM PEPTIDE1{[Nle].C.T.A.S.I.P.P.Q.C.Y.[dP].V}$PEPTIDE1,PEPTIDE1,2:R3-10:R3|PEPTIDE1,PEPTIDE1,1:R1-13:R2$$$V2.0) the IC50 [2] was > 20 µM, the “Chymase at 100 μM %” value (Chymase, from human skin) was 4.8% and the IC50 ([3]; Elastase IC50) was 15 nM. For the same compound, the “Trypsin at 100 μM %” value [4] was 28.3%, the “FXa at 100 μM %” value [5] was 0% and the “Thrombin at 100 μM %” value [6] was 0%. It also gave a Cytotoxicity LC50/GI50 Hela cells (HELA cells (Acc57); Hela cells) of 37 µM and an IC50 ([7]; Cathepsin G IC50) of 18.3 µM.

“Ex. 87: β-hairpin peptidomimetic of Table 1, template DPro-Pro (cyclo([Nle]C[Abu]ASIPPQCY); disulfide 2-10; also: DPro-Pro template, linkage not given here)” gave an IC50 ([2]; read-out: Chymotrypsin IC50) of 107 µM, an IC50 ([3]; read-out: Elastase IC50) of 37 nM and a Cytotoxicity LC50/GI50 Hela cells (HELA cells (Acc57)) of 65 µM.
